According to patent publication US20160101076A1, “Use of Sumoylation Inhibitors for Treating Cancer” (priority 2013, published 2016):

Columns and labels:
BT20 xenografts = BT20 xenografts from cells pretreated before inoculation; format: in vivo; conditions: BT20 cells pretreated for 48 hours prior to inoculation in nude mice; FIG. 8A
Description: FIGS. 8A-8D. SUMO Inhibitors Repressed Outgrowth of Xenografts. FIG. 8A. […] FIG. 8B. Tumor-free survival of nude mice (n=5 per group) inoculated with BT20 cells with animals gavaged with AA vs. vehicle. FIG. 8C. IOWA-1T cells were pre-treated with anacardic acid (AA) or vehicle and mice were followed until requiring euthanasia due to tumor size (Overall Survival). […] FIG. 8D. Nude mice were inoculated with 1×10^6, 5×10^5, or 2.5×10^5 IOWA-1T cells and animals were gavaged with either vehicle or AA; vehicle-gavaged mice developed tumors in 5, 10 and 12 days, respectively.
To address the effects of GA and AA on tumor initiation, BT20 cells were pretreated with GA or AA compared to vehicle prior to inoculation of xenografts in nude mice. As noted in FIG. 8A, pretreatment of the cells repressed the formation of tumor xenografts, whereas, vehicle treated cells formed xenografts with a median time of 8 weeks. […] We created a breast carcinoma cell line (IOWA-1T) from the basal tumor-derived cells used in FIG. 6A. The IOWA-1T cell line rapidly forms locally advanced tumors in nude mice. Identical experiments using the IOWA-1T basal cell line confirmed that either pre-treating the cancer cells or gavaging animals with AA repressed tumor initiation of xenografts (FIGS. 8C and 8D). […]

MCF-10A cells = experiment: CD44 expression and stem cell markers in normal breast cell line MCF-10A; format: cell-based, human; conditions: MCF-10A normal breast cell line
Description: (§1) The human breast cancer cell lines (MCF-7, SKBR-3, BT-20, BT-549, MCF-10A) were obtained from American Type Culture Collection. sKD-C cells were subcloned from parental MCF-7 cells with stable knockdown of TFAP2C as described (Cyr et al., 2014). ER<-positive tumors and the basal cancer tumor were obtained from surgical resection specimens. Cell suspensions were prepared with gentle collagenase/hyaluronidase (Stemcells) (Ponti et al., 2005). A new cell line was established from the basal tumor cells, called IOWA-1T (manuscript in preparation).
(§2) Western blots were performed as previously described (Cyr et al., 2014; Kulak et al., 2013). For immunoprecipitations anti-TFAP2A, anti-GFP antibody (Life Technologies) or IgG (#sc-2025, Santa Cruz Biotechnology) were cross-linked with Dynabeads protein A (Life Technologies). MCF7 protein was incubated with Dynabeads protein A-Abs complex, protein complexes were washed with DPBS (Gibco) with 0.01% Tween (Research Products International Corp.), and eluted with SDS loading buffer.
(§3) Cells were plated ([…]/10 cm2) and treated with 10 μM gingolic or anacardic acid (Sigma) for 2-4 days and collected for qPCR, Western blot and FACS analysis.
(§4) FACS analysis was performed as previously described (Roederer and Hardy, 2001).

[1] = test system: cells derived from a primary basal cancer; experiment: CD44 Western blot and CD44+/CD24-/low FACS in cells from a primary basal breast cancer; format: cell-based, human; conditions: for CD44 expression by Western blot: cells derived from a primary basal cancer, FIG. 6A; for CD44+/hi/CD24-/low CSC population: cells harvested from primary basal breast tumor refractory to chemotherapy, treated in vitro, FACS FIG. 6A
Description: In addition, cells from a primary basal breast cancer were treated in vitro in parallel. The cancer was from a patient with locally advanced breast cancer that was refractory to conventional chemotherapy. Remarkably, treatment with GA or AA cleared the CD44^+/hi/CD24^−/low CSC population from the cells harvested from the primary tumor (FIG. 6A, last panel). By contrast, GA/AA treatment of MCF-10A cells, a normal breast cell line model, had no effect on CD44 expression and had no effect on the percentage of cells expressing stem cell markers.
as §1, §2, §3, §4

BT-20 cells = experiment: CD44 Western blot and CD44+/CD24-/low FACS in BT-20 cells; format: cell-based, human; conditions: for ability to repress CD44 expression with knockdown of TFAP2A: BT20 cells, TFAP2A siRNA, Western blot FIG. 6C; for CD44+/CD24-/low population by FACS analysis / CD44 expression by Western blot: BT-20 cells, FIG. 6A, 10 μM, 2-4 days
Description: as §1, §2, §3, §4

Row | Compound | formation of tumor xenografts (tumor free survival) (BT20 xenografts) | CD44 expression (MCF-10A cells) | percentage of cells expressing stem cell markers (MCF-10A cells) | CD44 expression by Western blot [1] | CD44+/hi/CD24-/low CSC population [1] | ability to repress CD44 expression with knockdown of TFAP2A (BT-20 cells) | CD44+/CD24-/low population by FACS analysis (BT-20 cells) | CD44 expression by Western blot (BT-20 cells)
1 | CCCCCCCCCCCCCCCc1cccc(O)c1C(=O)O [AA, Anacardic acid (C15:0)] | repressed | no effect | no effect | inhibited | cleared | completely eliminated | significantly reduced | inhibited
2 | CCCCCC/C=C\CCCCCCCc1cccc(O)c1C(=O)O [GA, (Z)-6-(Pentadec-8-enyl)-2-hydroxybenzoic acid] | repressed | no effect | no effect | inhibited | cleared | completely eliminated | significantly reduced | inhibited
